# pKi: −log10 of the molar value. Read-outs that look alike come from different tables or passages of the source.
# Target: T1, Human Recombinant Matriptase 2 (Homo sapiens, UniProt Q8IU80)
# T1 construct: made in house
# T1 sequence (Q8IU80 1-811): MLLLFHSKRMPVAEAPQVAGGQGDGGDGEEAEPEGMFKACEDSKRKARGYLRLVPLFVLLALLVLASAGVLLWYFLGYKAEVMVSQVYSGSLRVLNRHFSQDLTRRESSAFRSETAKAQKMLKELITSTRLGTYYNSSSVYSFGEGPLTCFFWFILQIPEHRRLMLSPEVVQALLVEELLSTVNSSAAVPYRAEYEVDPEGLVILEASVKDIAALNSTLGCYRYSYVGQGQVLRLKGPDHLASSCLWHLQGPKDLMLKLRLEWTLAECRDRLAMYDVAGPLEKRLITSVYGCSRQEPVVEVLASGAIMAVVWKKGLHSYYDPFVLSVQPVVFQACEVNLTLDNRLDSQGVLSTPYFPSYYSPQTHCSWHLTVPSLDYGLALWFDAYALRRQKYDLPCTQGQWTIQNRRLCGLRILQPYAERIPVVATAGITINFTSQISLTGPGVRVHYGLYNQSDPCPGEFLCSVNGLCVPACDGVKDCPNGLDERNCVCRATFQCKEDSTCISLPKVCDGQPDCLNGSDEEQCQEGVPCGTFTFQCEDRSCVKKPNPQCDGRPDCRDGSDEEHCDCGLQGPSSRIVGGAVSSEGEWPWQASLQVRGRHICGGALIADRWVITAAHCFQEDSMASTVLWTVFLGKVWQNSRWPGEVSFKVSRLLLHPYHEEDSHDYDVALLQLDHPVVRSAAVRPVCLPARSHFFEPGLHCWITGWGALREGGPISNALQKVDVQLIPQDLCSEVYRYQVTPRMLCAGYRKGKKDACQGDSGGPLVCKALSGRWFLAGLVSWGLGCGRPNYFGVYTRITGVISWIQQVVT
# Test: Matriptase 2 inhibition, fluorescence based assay (Method I)
# Assay type: biochemical
# In short: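 In-house recombinant enzyme (3.5 nM), preincubated 30 min with compound, then Boc-Gln-Ala-Arg-AMC substrate (62 μM) in 50 mM Tris pH 7.5, 150 mM NaCl, 0.01% gelatin, 1% DMSO, 25 °C. Fluorescence (Ex 360/Em 480 nm) read 60 min after substrate; IC50 from variable-slope sigmoidal fit of % inhibition.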
# [1] = Table A, Ki of Matriptase-2, read-out: Mat-2 Ki
# [2] = Table A, Ki of Matriptase-2 given as class symbols, read-out: Mat-2 Ki
# [3] = Table B, Human Recombinant Matriptase 2, 3.5 nM enzyme, 62 μM substrate, 30 mins preincubation, read-out: Mean Ki
pKi [1],pKi [2],Structure (SMILES),other results
≥ 7.00,,"CN1CCC(COC(=O)c2cc3ccc(CN)nc3n2Cc2cc(NS(=O)(=O)C(F)(F)c3ccccc3)cc3ccccc23)CC1 [Compound 42, (1-methylpiperidin-4-yl)methyl 6-(aminometh-yl)-1-({3-[difluoro(phen-yl)methanesulfonamido]-naphthalen-1-yl}meth-yl)-1H-pyrrolo[2,3-b]-pyridine-2-carboxylate]",
6.30 to 7.00,,"CN(c1cc(Cn2c(C(=O)O)cc3ccc(CN)nc32)c2ccccc2c1)S(=O)(=O)Cc1ccccc1 [Compound 109, 6-(aminomethyl)-1-{[3-(N-methylphenylmeth-anesulfonamido)naph-thalen-1-yl]methyl}-1H-pyrrolo[2,3-b]pyridine-2-carboxylic acid]",
6.30 to 7.00,,"NCc1ccc2cc(C(=O)OCCn3ccnc3)n(Cc3cc(NS(=O)(=O)Cc4ccccc4)cc4ccccc34)c2n1 [Compound 93, 2-(1H-imidazol-1-yl)-ethyl 6-(aminomethyl)-1-{[3-(phenylmethanesul-fonamido)naphthalen-1-yl]methyl}-1H-pyrrolo-[2,3-b]pyridine-2-car-boxylate]",
,6.30 to 7.00,"CNCCOC(=O)c1cc2ccc(CN)nc2n1Cc1cc(NS(=O)(=O)Cc2c(C)cccc2C)cc2ccccc12 [Compound 200, 2-(methylamino)ethyl 6-(aminomethyl)-1-({3-[(2,6-dimethylphenyl)-methanesulfonamido]-naphthalen-1-yl}meth-yl)-1H-pyrrolo[2,3-b]-pyridine-2-carboxylate]",
≥ 7.00,,"CC(C)CN1CCC(COC(=O)c2cc3ccc(CN)nc3n2Cc2cc(NS(=O)(=O)Cc3ccccc3)cc3ccccc23)CC1 [Compound 43, [1-(2-methylpropyl)-piperidin-4-yl]methyl 6-(aminomethyl)-1-{[3-(phenylmethanesulfon-amido)naphthalen-1-yl]-methyl}-1H-pyrrolo[2,3-b]pyridine-2-carboxylate]",
,≥ 7.00,"Cn1ccnc1COC(=O)c1cc2ccc(CN)cc2n1Cc1cc(NS(=O)(=O)Cc2ccsc2)cc2ccccc12 [Compound 381, (1-methyl-1H-imidazol-2-yl)methyl 6-(amino-methyl)-1-({3-[(thio-phen-3-yl)methanesulfon-amido]naphthalen-1-yl}-methyl)-1H-indole-2-carboxylate]",
≥ 7.00,,"CNCCOC(=O)c1cc2ccc(CN)nc2n1Cc1cc(NS(=O)(=O)Cc2ccsc2)cc2ccccc12 [Compound 175, 2-(methylamino)ethyl 6-(aminomethyl)-1-({3-[(thiophen-3-yl)methane-sulfonamido]naphthalen-1-yl}methyl)-1H-pyr-rolo[2,3-b]pyridine-2-carboxylate]",
,6.30 to 7.00,"NCc1ccc2cc(C(=O)O)n(Cc3cc(NC(=O)NCC4CCN(S(=O)(=O)C5CC5)CC4)cc4ccccc34)c2n1 [Compound 292, 6-(aminomethyl)-1-({3-[({[1-(cyclopropanesul-fonyl)piperidin-4-yl]-methyl}carbamoyl)-amino]naphthalen-1-yl}-methyl)-1H-pyrrolo[2,3-b]pyridine-2-carboxylic acid]",
,≥ 7.00,"NCc1ccc2cc(C(=O)O)n(Cc3cc(NS(=O)(=O)CCN4CCNCC4)cc4ccccc34)c2n1 [Compound 214, 6-(aminomethyl)-1-({3-[2-(piperazin-1-yl)-ethanesulfonamido]-naphthalen-1-yl}meth-yl)-1H-pyrrolo[2,3-b]-pyridine-2-carboxylic acid]",
≥ 7.00,,CN1CCC(COC(=O)c2cc3ccc(CN)nc3n2Cc2cc(NS(=O)(=O)Cc3ccsc3)cc3ccccc23)CC1 [Compound 5],
,5.52 to 6.30,CN(C)C(=O)N1CC[C@H](OC(=O)Nc2cc(Cn3c(C(=O)O)cc4ccc(CN)nc43)c3ccccc3c2)C1 [Compound 341],
,5.52 to 6.30,"CNCCOC(=O)c1cc2ccc(CN)nc2n1Cc1cc(NS(=O)(=O)CC[C@@H]2CCCN2)cc2ccccc12 [Compound 283, 2-(methylamino)ethyl 6-(aminomethyl)-1-[(3-{2-[(2S)-pyrrolidin-2-yl]-ethanesulfonamido}-naphthalen-1-yl)methyl]-1H-pyrrolo[2,3-b]pyr-idine-2-carboxylate]",
6.30 to 7.00,,"CN(CCOC(=O)c1cc2ccc(CN)nc2n1Cc1cc(NS(=O)(=O)Cc2ccccc2)cc2ccccc12)Cc1ccccc1 [Compound 134, 2-[benzyl(methyl)-amino]ethyl 6-(amino-methyl)-1-{[3-(phenyl-methanesulfonamido)-naphthalen-1-yl]methyl}-1H-pyrrolo[2,3-b]pyr-idine-2-carboxylate]",
,,CN1CCC(COC(=O)c2cc3ccc(CN)nc3n2Cc2cccn3nccc23)CC1 [Compound 2.26],pKi [3]: < 5.52
,6.30 to 7.00,"CS(=O)(=O)N1CCC(CNC(=O)Nc2cc(Cn3c(C(=O)O)cc4ccc(CN)cc43)c3ccccc3c2)CC1 [Compound 397, 6-(aminomethyl)-1-{[3-({[(1-methanesulfonyl-piperidin-4-yl)methyl]-carbamoyl}amino)naph-thalen-1-yl]methyl}-1H-indole-2-carboxylic acid]",
≥ 7.00,,"C[C@@H](c1ccccc1)S(=O)(=O)Nc1cc(Cn2c(C(=O)OCC3CCN(C)CC3)cc3ccc(CN)nc32)c2ccccc2c1 (racemic) [Compound 11, (1-methylpiperidin-4-yl)methyl 6-(aminometh-yl)-1-{[3-(1-phenyl-ethanesulfonamido)naph-thalen-1-yl]methyl}-1H-pyrrolo[2,3-b]pyridine-2-carboxylate]",
,,CN1CCC(COC(=O)c2cc3ccc(CN)nc3n2Cc2cc(NS(=O)(=O)Cc3ccsc3)cc3ccccc23)CCC1=O (centres unmarked) [Compound 2.17],pKi [3]: ≥ 7.00
,,CN(C)c1ccc(NC(=O)c2cc3ccc(CN)nc3n2Cc2cc(NS(=O)(=O)Cc3ccccc3)cc3ccccc23)cc1 [Compound 2.36],pKi [3]: 6.30 to 7.00
,5.52 to 6.30,"CC(C)[C@H]1CCN(C(=O)Nc2cc(Cn3c(C(=O)O)cc4ccc(CN)nc43)c3ccccc3c2)C1 (racemic) [Compound 303, rac-6-(aminomethyl)-1-[(3-{[(3R)-3-(propan-2-yl)pyrrolidine-1-carbon-yl]amino}naphthalen-1-yl)methyl]-1H-pyrrolo-[2,3-b]pyridine-2-car-boxylic acid]",
≥ 7.00,,"NCc1ccc2cc(C(=O)O)n(Cc3cc(NS(=O)(=O)Cc4ccccc4)cc4ccccc34)c2n1 [Compound 62, 6-(aminomethyl)-1-{[3-(phenylmethanesulfon-amido)naphthalen-1-yl]-methyl}-1H-pyrrolo[2,3-b]pyridine-2-carboxylic acid]",
,6.30 to 7.00,"NCc1ccc2cc(C(=O)O)n(Cc3cc(NS(=O)(=O)CCn4cnnn4)cc4ccccc34)c2n1 [Compound 226, 6-(aminomethyl)-1-({3-[2-(1H-1,2,3,4-tetrazol-1-yl)ethanesulfonamido]-naphthalen-1-yl}methyl)-1H-pyrrolo[2,3-b]pyr-idine-2-carboxylic acid]",
,5.52 to 6.30,"CCOC(=O)c1cc2ccc(CNC(=O)c3ccccc3COC(C)=O)nc2n1Cc1cc(NS(=O)(=O)Cc2ccccc2)cc2ccccc12 [Compound 358, ethyl 6-[({2-[(acetyl-oxy)methyl]phenyl}-formamido)methyl]-1-{[3-(phenylmethane-sulfonamido)naphthalen-1-yl]methyl}-1H-pyr-rolo[2,3-b]pyridine-2-carboxylate]",
,6.30 to 7.00,"CN(C)CCCCS(=O)(=O)Nc1cc(Cn2c(C(=O)O)cc3ccc(CN)nc32)c2ccccc2c1 [Compound 219, 6-(aminomethyl)-1-({3-[4-(dimethylamino)-butanesulfonamido]naph-thalen-1-yl}methyl)-1H-pyrrolo[2,3-b]pyridine-2-carboxylic acid]",
,≥ 7.00,"C[C@H](c1ccccc1)S(=O)(=O)Nc1cc(Cn2c(C(=O)OCC3CCN(C)CC3)cc3ccc(CN)cc32)c2ccccc2c1 [Compound 378, (1-methylpiperidin-4-yl)-methyl 6-(aminomethyl)-1-({3-[(1R)-1-phenyl-ethane-sulfonamido]-naphthalen-1-yl}methyl)-1H-indole-2-carboxylate]",
≥ 7.00,,"COCCN1CC[C@H](COC(=O)c2cc3ccc(CN)nc3n2Cc2cc(NS(=O)(=O)Cc3c(C)cccc3C)cc3ccccc23)C1 (racemic) [Compound 194, [1-(2-methoxyethyl)pyr-rolidin-3-yl]methyl 6-(aminomethyl)-1-({3-[(2,6-dimethylphenyl)-methanesulfonamido]-naphthalen-1-yl}meth-yl)-1H-pyrrolo[2,3-b]-pyridine-2-carboxylate]",
≥ 7.00,,"CC(=O)N(C)CCOC(=O)c1cc2ccc(CN)nc2n1Cc1cc(NS(=O)(=O)Cc2ccsc2)cc2ccccc12 [Compound 171, 2-(N-methylacetamido)-ethyl 6-(aminomethyl)-1-({3-[(thiophen-3-yl)-methanesulfonamido]-naphthalen-1-yl}meth-yl)-1H-pyrrolo[2,3-b]-pyridine-2-carboxylate]",

# Source: US20240400553A1, “AMINE BASED MATRIPTASE 2 INHIBITORS AND USES THEREOF” (Disc Medicine, Inc., priority 2023, published 2024)
